Results on 10 substances are retold here after patent US20210106679A1, “Silaffin Silica Particle Adjuvant” (UNIVERSITÄT WIEN, priority 2017, published 2021).

The conditions of data set [1]: from a solution of silicic acid; cited from earlier work.
Data set [2] can be described thus: Circular dichroism of peptide solutions. The format is physicochemical. Conditions: for CD spectrum profile: 0.8 mM in 50 mM phosphate buffer pH 7, after 24 h incubation. The method, then: CD spectra were recorded on peptide solutions at 0.8 mM (by weight) in 50 mM phosphate buffer at pH 7. Solutions had been incubated at room temperature for a minimum of 24 h. Scans were performed in 1 nm increments with 3 s scans at 20° C. and averaged over 5 scans.
The CD spectrum of peptide 1 in the A range of 200-250 nm was fitted by use of the novel Beta Structure Selection algorithm with normalized root mean square deviation of 0.018 (A. Micsonai, F. Wien, L. Kernya, Y.-H. Lee, Y. Goto, M. Réfrégiers and J. Kardos, Proc. Natl. Acad. Sci., 2015, 112, E3095-E3103). The algorithm predicts that the secondary or tertiary structure of the peptide consists of approximately 56% random coils, 27% beta-sheets and 17% beta-turns.
(In general: Circular dichroism is widely used to follow secondary structure.)

The nature of data set [3]: TEM imaging of peptides and peptide-silica mixtures. The format is physicochemical. The settings on record: phosphate buffer, absence of silicic acid. The method, then: Peptide and peptide-silica mixtures suspended in 50 mM phosphate buffer were applied onto carbon coated copper grid and subsequently viewed with Philips CM200 electron microscope operated at 200 kV.
Data set [4] in a line: Silica precipitation (mineralisation) by peptides. The settings on record: silicic acid 25 mM, peptide 0.5 mg/mL, 50 mM phosphate buffer pH 7, RT. The method, then:
The individual members of the peptide library were subjected to silica mineralisation conditions analogous to those used for the R5 peptide (C. C. Lechner and C. F. W. Becker, Chem. Sci., 2012, 3, 3500). Phosphate buffered solution at pH 7 was used as a background for the reaction, and peptides were individually incubated in this buffer for 24 h prior to silica precipitation. White precipitate was observable in all samples within the first five minutes following addition of the silicic acid.
Peptides were dissolved to a final concentration of 0.5 mg/mL in 50 mM potassium phosphate buffer at pH 7.0 and left standing at room temperature overnight. Silicic acid was generated by hydrolysis of 250 mM tetramethoxysilane in 1 mM aqueous HCl for 4 min. Silica precipitation reactions were initiated by addition of silicic acid to peptide solutions to a final concentration of 25 mM. Reactions were incubated at RT for 30 min. Silica precipitates were collected by centrifugation (5 min, 16.873×g) and washed twice with water. […] All precipitations were carried out in triplicates.

Setting [5] is: CD 200-250 nm fitted with Beta Structure Selection algorithm.

Entries after “also recorded” stand apart in the source; their conditions may differ. *1 amine or outer side, *2 acyl side, *3 side chain or, on linkers, in order; H or OH if unused. Where no end group is shown, it is not given here. [ ]: non-standard residue; d: D form. εLys = N[C@@H](CCCCN[*:1])C(=O)[*:2]

On to KRRIL (truncated silaffin peptide I), for which the “silica precipitation and morphology” value in data set [1] is “precipitate silica with a random morphology”.
Turning to “RRIIL(εK)RRIL (RRIIL[εLys]RRIL-OH; also: Lys6 bound via its epsilon amine to the preceding Leu (branched)) [Peptide 9]”, in data set [2], the CD spectrum profile result is “profile was similar to that of peptides 1”.
On to RRILKRRIL [Peptide 1], for which the CD spectrum profile entry in data set [2] is given as “random coil conformation”. Besides, in data set [2] (setting [5]), the “secondary structure: beta-sheets” value is given as about 27%, the “secondary structure: beta-turns” value is recorded as about 17% and the “secondary structure: random coils” value is on record as “approximately 56%”.
On to SSKKSGSYSGSKGSKRRIL [Peptide R5], for which the “silica precipitation and morphology” value in data set [1] is given as “highly efficient in precipitating monodisperse silica particles”.
As to rriIKRRIL [Peptide 5], the CD spectrum profile entry in data set [2] is reported as “significantly lower magnitudes than those for peptides 1-4”.
For rriil(εK)RRIL [Peptide 8], the “diameter of peptide rods or narrow sheets (TEM)” value in data set [3] is on record as 80-200 nm. Further, in data set [2], the CD spectrum profile entry is “significantly lower magnitudes than those for peptides 1-4; also recorded: the minimum at 200 nm disappeared and the curve gained a positive character”.
Regarding rriil(εK)RRLL [Peptide 66], in data set [4], the “capacity to precipitate silica” value was “still able to precipitate silica”.
rril(εK)RRIIL [Peptide 7]: the CD spectrum profile entry in data set [2] is “significantly lower magnitudes than those for peptides 1-4”.
On the same count and under the same terms, the entry for rril(εK)RRIL [Peptide 6] is “significantly lower magnitudes than those for peptides 1-4”; for rrilkrril [Peptide 2] it is “mirror image of the spectrum of peptide 1”.
